{
  "source": "patent US20240271071A1",
  "about": "“METHOD AND APPARATUS FOR FORMING A MICROFLUIDIC GEL STRUCTURE” (Mimetas B.V., priority 2021, published 2024)",
  "system": "HCAEC and HCASMC co-culture",
  "assay": "Visualising contractile lumen (vasodilation/vasoconstriction) in coronary artery tubule model",
  "assay_type": "cell-based, Human",
  "details": "Sildenafil at day 6, 5 μM, 50 μM and 500 μM, after Norepinephrine at day 3; phase contrast images, 30 minutes post-exposure",
  "method": "For this example, a 3-lane OrganoPlate® ([…]) with 400 μm wide lanes was used, which comprises a microfluidic network of 3 lanes and two capillary pressure barriers. The network was filled with 50 μL HBSS in the observation window (the point where the 3 lanes converge) to provide additional humidity to the plate. The central lane was filled at the inlet with a neutralised bovine type I atelocollagen solution PureCol® EZ Gel 5 mg/ml (Advanced BioMatrix); the solution was pinned at the capillary pressure barrier leaving a free-standing meniscus at the air-liquid interface in the upper and lower lane. A 30 μL solution of HBSS was introduced into the inlet of the centre lane, and a 1 μL solution of 5% FBS in PBS was introduced at the hole of the outlet of the centre lane forming a dome shape as in Example 1. […] After 1 minute 50 μL of HBSS was added to the outlet and the OrganoPlate was placed in a humidity-controlled environment at 37° C. and 5% CO2 for 1 hour. For cell seeding, 1 μL of a cell suspension containing 10,000 cell/μL Primary Human Coronary Artery Endothelial Cells (HCAEC) and 2,500 cell/μL Primary Human Coronary Artery Smooth Muscle Cells (HCASMC) was seeded in the outlet of the middle lane. The cell suspension was driven into the microfluidic network by means of Laplace pressure due to the surface tension of the cell pellet. Cells were left to attach for between 2-6 hours. […]",
  "data": [
    {"smiles": "CCCc1nn(C)c2c(=O)[nH]c(-c3cc(S(=O)(=O)N4CCN(C)CC4)ccc3OCC)nc12", "note": "[Sildenafil]", "values": [
      {"measurement": "contraction of the tubule / change of lumen diameter upon exposure to a stimulus", "value": "contraction"}
    ]}
  ]
}
